In US8901159B2, “Inhibition of inflammation by simultaneous blockade of multiple prostanoid receptors” (Allergan, Inc., priority 2010, dated 2014):

Legend:
[1] = test system: Experimental autoimmune uveoretinitis (EAU); assay: Rat Experimental Autoimmune Uveoretinitis (EAU) model; format: in vivo; conditions: FIG. 14
[2] = test system: laser-induced neovascularization (CNV); assay: Rat laser-induced neovascularization (CNV) model; format: in vivo; conditions: formulated in 70% PEG, FIG. 15, vs vehicle, EXAMPLE 8, SC-51322 and their combination
Method: The compound of Example 1 was also evaluated for activity in an in-vivo Rat laser-induced neovascularization (CNV) model.
In this test, compounds were formulated in 70% polyethylene glycol (PEG). CNV is induced by laser burn.

[3] = target: T1, human prostanoid TP receptor (Homo sapiens, UniProt P21731); assay: PG antagonist activity, Ca2+ signal in human recombinant prostanoid receptor stable cell line; format: cell-based; conditions: parameter and unit not given
T1 construct: expressed in transfected cells
T1 sequence (P21731 1-343): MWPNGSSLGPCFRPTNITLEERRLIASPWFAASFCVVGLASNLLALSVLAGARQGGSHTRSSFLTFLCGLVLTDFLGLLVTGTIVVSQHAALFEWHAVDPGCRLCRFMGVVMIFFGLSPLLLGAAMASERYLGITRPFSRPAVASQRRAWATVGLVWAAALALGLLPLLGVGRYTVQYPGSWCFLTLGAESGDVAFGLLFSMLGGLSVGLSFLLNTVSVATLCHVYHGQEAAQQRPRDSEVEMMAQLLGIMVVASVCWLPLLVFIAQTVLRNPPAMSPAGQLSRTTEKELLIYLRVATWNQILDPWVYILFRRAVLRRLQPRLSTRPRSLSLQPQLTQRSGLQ
Method: (§1) The above compounds were tested for PG antagonist activity as follows using human recombinant prostanoid receptor (DP1, EP1-4, FP, IP and TP) stable cell lines:
(§2) In order to measure the response of Gs and Gi coupled prostanoid receptors as a Ca^2+ signal, chimeric G protein cDNAs were used. Stable cell lines over-expressing human prostanoid DP1, EP1-4, FP, IP, and TP receptors were established as described in U.S. Ser. No. 61/410,153.

[4] = target: T2, human prostanoid EP4 receptor (Homo sapiens, UniProt P35408); assay: as above; format: cell-based; conditions: parameter and unit not given
T2 construct: expressed in transfected cells
Method: as §1, §2

[5] = target: T3, human prostanoid FP receptor (Homo sapiens, UniProt P43088); assay: as above; format: cell-based; conditions: parameter and unit not given
T3 construct: expressed in transfected cells
Method: as §1, §2

[6] = target: T4, human prostanoid EP3 receptor (Homo sapiens, UniProt P43115); assay: as above; format: cell-based; conditions: parameter and unit not given
T4 construct: expressed in transfected cells
T4 sequence (P43115 1-390): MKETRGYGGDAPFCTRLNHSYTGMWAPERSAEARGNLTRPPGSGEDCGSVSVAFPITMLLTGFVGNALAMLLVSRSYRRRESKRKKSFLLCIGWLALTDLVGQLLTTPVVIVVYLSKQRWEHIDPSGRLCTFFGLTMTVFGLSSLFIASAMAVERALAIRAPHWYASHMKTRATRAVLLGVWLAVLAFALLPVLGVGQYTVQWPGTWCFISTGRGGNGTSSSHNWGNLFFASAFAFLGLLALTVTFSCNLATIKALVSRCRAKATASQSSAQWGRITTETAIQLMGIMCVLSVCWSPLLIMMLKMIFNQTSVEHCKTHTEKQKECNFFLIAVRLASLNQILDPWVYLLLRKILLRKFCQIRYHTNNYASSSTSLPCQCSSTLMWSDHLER
Method: as §1, §2

[7] = target: T5, human prostanoid EP1 receptor (Homo sapiens, UniProt P34995); assay: as above; format: cell-based; conditions: parameter and unit not given
T5 construct: expressed in transfected cells
T5 sequence (P34995 1-402): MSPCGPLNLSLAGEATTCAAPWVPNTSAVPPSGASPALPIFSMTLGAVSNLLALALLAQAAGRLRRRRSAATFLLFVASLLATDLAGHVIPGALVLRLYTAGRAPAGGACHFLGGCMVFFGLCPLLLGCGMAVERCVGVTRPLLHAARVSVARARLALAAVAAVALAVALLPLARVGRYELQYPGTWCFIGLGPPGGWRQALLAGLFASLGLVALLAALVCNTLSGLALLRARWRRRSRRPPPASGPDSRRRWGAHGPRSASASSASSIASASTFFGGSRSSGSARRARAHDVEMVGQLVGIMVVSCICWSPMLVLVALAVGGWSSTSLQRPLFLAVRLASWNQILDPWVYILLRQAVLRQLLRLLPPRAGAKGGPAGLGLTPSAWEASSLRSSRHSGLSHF
Method: as §1, §2

[8] = target: T6, human prostanoid DP1 receptor (Homo sapiens, UniProt Q13258); assay: as above; format: cell-based; conditions: parameter and unit not given
T6 construct: expressed in transfected cells
T6 sequence (Q13258 1-359): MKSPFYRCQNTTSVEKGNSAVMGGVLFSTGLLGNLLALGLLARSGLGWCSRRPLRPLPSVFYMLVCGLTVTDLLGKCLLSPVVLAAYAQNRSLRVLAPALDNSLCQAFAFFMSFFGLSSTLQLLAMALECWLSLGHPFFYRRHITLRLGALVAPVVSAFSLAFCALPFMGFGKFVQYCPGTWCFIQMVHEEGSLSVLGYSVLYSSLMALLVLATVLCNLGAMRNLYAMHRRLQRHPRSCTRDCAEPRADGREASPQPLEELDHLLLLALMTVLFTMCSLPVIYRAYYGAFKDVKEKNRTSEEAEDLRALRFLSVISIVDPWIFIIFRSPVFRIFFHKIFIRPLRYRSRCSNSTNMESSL
Method: as §1, §2

[9] = test system: human recombinant prostanoid receptor (DP1, EP1-4, FP, IP and TP); assay: Prostanoid receptor blockade profile stated in words; format: cell-based
Method: as §1, §2

[10] = test system: human recombinant prostanoid receptor (DP1, EP1-4, FP, IP and TP); conditions: stated in words; IUPHAR database referred to; cited from earlier work
[11] = target: T7, human prostanoid IP receptor (Homo sapiens, UniProt P43119); assay: PG antagonist activity, Ca2+ signal in human recombinant prostanoid receptor stable cell line; format: cell-based; conditions: parameter and unit not given
T7 construct: expressed in transfected cells
Method: as §1, §2

[12] = target: T8, human prostanoid EP2 receptor (Homo sapiens, UniProt P43116); assay: as above; format: cell-based; conditions: parameter and unit not given
T8 construct: expressed in transfected cells
Method: as §1, §2

[13] = rat EAU, vs all of the comparators

T3 sequence (P43088 whole entry): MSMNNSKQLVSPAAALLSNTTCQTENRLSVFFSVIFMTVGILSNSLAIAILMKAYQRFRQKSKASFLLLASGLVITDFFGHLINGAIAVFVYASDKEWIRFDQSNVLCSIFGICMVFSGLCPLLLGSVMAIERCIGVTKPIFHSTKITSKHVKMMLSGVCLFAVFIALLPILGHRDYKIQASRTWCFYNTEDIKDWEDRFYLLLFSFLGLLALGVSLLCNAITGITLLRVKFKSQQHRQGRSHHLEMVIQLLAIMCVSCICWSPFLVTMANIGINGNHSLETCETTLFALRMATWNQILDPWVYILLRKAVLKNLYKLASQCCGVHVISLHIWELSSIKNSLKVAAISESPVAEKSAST
T2 sequence (P35408 whole entry): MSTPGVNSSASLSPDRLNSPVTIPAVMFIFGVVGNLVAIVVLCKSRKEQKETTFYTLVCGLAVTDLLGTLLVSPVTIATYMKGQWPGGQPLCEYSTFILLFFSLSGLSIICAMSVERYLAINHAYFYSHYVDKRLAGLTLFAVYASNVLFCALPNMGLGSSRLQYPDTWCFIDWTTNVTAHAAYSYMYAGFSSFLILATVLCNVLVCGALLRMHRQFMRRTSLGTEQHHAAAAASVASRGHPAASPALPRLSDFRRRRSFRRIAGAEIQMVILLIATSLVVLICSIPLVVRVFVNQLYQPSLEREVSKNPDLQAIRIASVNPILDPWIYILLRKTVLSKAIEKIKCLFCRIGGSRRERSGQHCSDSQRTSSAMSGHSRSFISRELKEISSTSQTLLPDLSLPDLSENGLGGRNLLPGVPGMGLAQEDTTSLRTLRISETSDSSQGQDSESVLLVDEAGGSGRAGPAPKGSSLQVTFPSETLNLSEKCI
T7 sequence (P43119 whole entry): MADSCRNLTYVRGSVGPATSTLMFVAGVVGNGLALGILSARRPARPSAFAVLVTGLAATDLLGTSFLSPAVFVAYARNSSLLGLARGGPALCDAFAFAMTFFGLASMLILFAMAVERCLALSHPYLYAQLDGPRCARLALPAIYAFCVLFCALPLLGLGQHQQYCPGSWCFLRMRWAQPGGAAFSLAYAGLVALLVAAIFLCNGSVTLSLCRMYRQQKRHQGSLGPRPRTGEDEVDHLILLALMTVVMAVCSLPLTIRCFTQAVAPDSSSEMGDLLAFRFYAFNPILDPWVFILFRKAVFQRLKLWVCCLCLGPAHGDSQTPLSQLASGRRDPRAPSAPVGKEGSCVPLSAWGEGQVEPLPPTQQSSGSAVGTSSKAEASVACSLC
T8 sequence (P43116 whole entry): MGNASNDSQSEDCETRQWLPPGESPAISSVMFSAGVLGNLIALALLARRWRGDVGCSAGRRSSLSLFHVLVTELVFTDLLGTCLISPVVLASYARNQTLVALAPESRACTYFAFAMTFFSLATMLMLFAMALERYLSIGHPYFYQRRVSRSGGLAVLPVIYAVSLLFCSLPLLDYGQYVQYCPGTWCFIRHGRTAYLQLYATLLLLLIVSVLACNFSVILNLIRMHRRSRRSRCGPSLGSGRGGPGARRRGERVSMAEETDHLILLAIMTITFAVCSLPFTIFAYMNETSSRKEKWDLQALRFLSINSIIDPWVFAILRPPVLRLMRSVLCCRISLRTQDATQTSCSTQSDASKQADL

O=C(O)/C=C/c1ccc(F)cc1C[C@@H]1C(c2nc(C(=O)NCCCCC3CCCCC3)co2)C2CC[C@H]1O2 (stereo partly drawn) [Example 1, (E)-3-(2R-{3R-[4-(4-Cyclohexyl-butylcarbamoyl)-oxazol-2-yl]-7-oxa-bicyclo[2.2.1]hept-2-ylmethyl}-4-fluoro-phenyl)-acrylic acid]
clinical score ([1]; rat EAU induced by M18 peptide, vs vehicle, EXAMPLE 8, SC-51322 and their combination): better clinical score than any of the comparators except the combination
amount of invasive cells in the aqueous humor [1, 13]: lower amount
amount of protein in the aqueous humor [1, 13]: lower amount
clinical score (angiostatic efficacy) [2]: better clinical score than any of the comparators except the combination
TP (PG antagonist activity) [3]: <1
EP4 (PG antagonist activity) [4]: 60
FP (PG antagonist activity) [5]: 59
EP3 (PG antagonist activity) [6]: 5500
EP1 (PG antagonist activity) [7]: 380
DP (PG antagonist activity) [8]: 71

O=C(O)CCc1ccc(F)cc1C[C@H]1[C@@H]2CCC(O2)[C@H]1c1nc(C(=O)NCCCCC2CCCCC2)co1 [EXAMPLE 8, 3-(2-{(1S,2R,3S)-3-[4-(4-Cyclohexyl-butylcarbamoyl)-oxazol-2-yl]-7-oxa-bicyclo[2.2.1]hept-2-ylmethyl}-4-fluoro-phenyl)-propionic acid]
prostanoid receptor selectivity / blockade profile [9]: selective for DP1, EP4, FP and TP receptors

O=C(CCSCc1ccco1)NNC(=O)N1Cc2ccccc2Oc2ccc(Cl)cc21 [SC-51322]
prostanoid receptor blockade profile of comparator [10]: blocks the EP1 receptor, only

CCCCCCCCCNC(=O)c1coc(C2C3CCC(O3)C2Cc2cc(F)ccc2/C=C/C(=O)O)n1 (stereo not drawn) [Example 3]
TP (PG antagonist activity) [3]: <1
EP4 (PG antagonist activity) [4]: 180
FP (PG antagonist activity) [5]: 230
EP1 (PG antagonist activity) [7]: 4100
DP (PG antagonist activity) [8]: 270

CCCCCCCCNC(=O)c1coc(C2C3CCC(O3)C2Cc2cc(F)ccc2CCC(=O)O)n1 (stereo not drawn) [Example 5]
TP (PG antagonist activity) [3]: <1
EP4 (PG antagonist activity) [4]: 160
FP (PG antagonist activity) [5]: 25
IP (PG antagonist activity) [11]: 2400
EP3 (PG antagonist activity) [6]: 4700
EP1 (PG antagonist activity) [7]: 1400
DP (PG antagonist activity) [8]: 55

CCCCCCCCCNC(=O)c1coc(C2C3CC[C@@H](O3)[C@@H]2Cc2cc(F)ccc2CCC(=O)O)n1 (stereo partly drawn) [Example 4, 3-{2R-[3R-(4-Nonylcarbamoyl-oxazol-2-yl)-7-oxa-bicyclo[2.2.1]hept-2-ylmethyl]-4-fluoro-phenyl}-propionic acid]
TP (PG antagonist activity) [3]: <1
EP4 (PG antagonist activity) [4]: 92
FP (PG antagonist activity) [5]: 12
IP (PG antagonist activity) [11]: 1900
EP3 (PG antagonist activity) [6]: 4100
EP1 (PG antagonist activity) [7]: 660
EP2 (PG antagonist activity) [12]: 4300
DP (PG antagonist activity) [8]: 17

O=C(O)CCc1ccc(F)cc1CC1C2CCC(O2)C1c1nc(C(=O)NCCCCC2CCCCC2)co1 (stereo not drawn) [Example 6]
TP (PG antagonist activity) [3]: <1
EP4 (PG antagonist activity) [4]: 170
FP (PG antagonist activity) [5]: 35
EP1 (PG antagonist activity) [7]: 1750
DP (PG antagonist activity) [8]: 50

CCCCCCCCNC(=O)c1coc(C2C3CCC(O3)C2Cc2cc(F)ccc2/C=C/C(=O)O)n1 (stereo not drawn) [Example 2]
TP (PG antagonist activity) [3]: <1
EP4 (PG antagonist activity) [4]: 120
FP (PG antagonist activity) [5]: 300
EP1 (PG antagonist activity) [7]: 2000
DP (PG antagonist activity) [8]: 220
